According to BindingDB's records for doi:10.1111/j.1476-5381.1995.tb14977.x (Syntex Discovery Research, 1995):
Values joined by “and” are separate entries in the source; they are usually repeats but may differ in a detail not shown here. Identical values can stand only once.

What was measured:
[1] = target: 5-hydroxytryptamine receptor 2B (Homo sapiens, UniProt P41595)
[2] = target: T1, 5-hydroxytryptamine receptor 2C (Homo sapiens, UniProt P28335)
T1 sequence (P28335 whole entry): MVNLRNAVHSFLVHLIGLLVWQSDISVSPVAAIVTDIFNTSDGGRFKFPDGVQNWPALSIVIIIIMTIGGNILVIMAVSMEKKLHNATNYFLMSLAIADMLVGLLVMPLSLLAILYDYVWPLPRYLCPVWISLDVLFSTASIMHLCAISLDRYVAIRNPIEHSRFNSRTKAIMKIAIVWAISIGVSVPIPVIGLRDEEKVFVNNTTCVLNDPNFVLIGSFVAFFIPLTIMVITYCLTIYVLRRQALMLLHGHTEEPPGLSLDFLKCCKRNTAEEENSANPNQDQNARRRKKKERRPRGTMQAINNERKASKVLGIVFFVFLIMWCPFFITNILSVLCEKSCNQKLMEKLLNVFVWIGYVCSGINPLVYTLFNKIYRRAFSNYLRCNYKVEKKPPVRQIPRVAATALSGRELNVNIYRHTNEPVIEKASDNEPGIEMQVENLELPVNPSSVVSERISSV

[3] = target: T2, 5-hydroxytryptamine receptor 2C (Rattus norvegicus, UniProt P08909)
T2 sequence (P08909 whole entry): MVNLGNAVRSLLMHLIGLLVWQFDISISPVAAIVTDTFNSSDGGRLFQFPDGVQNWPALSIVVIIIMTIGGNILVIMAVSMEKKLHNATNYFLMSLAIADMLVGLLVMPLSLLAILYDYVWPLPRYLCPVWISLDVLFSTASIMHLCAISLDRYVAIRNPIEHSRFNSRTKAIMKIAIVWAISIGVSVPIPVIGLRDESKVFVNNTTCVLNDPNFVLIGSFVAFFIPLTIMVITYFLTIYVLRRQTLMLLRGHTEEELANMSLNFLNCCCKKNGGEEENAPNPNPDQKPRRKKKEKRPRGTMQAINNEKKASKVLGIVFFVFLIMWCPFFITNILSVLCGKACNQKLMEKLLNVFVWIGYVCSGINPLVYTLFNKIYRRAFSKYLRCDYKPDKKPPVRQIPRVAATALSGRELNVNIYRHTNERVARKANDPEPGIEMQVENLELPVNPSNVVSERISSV

[4] = target: 5-hydroxytryptamine receptor 2B (Rattus norvegicus, UniProt P30994)
Chain of 5-hydroxytryptamine receptor 2B (Rattus norvegicus, UniProt P30994) (P30994 whole entry): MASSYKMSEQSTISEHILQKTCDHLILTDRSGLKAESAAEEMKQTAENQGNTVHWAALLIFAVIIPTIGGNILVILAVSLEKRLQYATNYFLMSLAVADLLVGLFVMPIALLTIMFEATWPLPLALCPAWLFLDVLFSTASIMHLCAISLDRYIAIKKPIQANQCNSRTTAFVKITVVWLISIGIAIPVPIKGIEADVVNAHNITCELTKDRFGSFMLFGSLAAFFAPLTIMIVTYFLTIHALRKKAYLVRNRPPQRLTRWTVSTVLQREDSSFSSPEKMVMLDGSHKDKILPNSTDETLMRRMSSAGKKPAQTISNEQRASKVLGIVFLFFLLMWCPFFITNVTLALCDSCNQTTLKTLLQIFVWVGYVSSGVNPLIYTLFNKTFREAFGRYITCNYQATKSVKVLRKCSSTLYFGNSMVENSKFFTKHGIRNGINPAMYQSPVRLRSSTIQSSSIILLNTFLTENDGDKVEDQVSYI

Chain of 5-hydroxytryptamine receptor 2B (Homo sapiens, UniProt P41595) (P41595 whole entry): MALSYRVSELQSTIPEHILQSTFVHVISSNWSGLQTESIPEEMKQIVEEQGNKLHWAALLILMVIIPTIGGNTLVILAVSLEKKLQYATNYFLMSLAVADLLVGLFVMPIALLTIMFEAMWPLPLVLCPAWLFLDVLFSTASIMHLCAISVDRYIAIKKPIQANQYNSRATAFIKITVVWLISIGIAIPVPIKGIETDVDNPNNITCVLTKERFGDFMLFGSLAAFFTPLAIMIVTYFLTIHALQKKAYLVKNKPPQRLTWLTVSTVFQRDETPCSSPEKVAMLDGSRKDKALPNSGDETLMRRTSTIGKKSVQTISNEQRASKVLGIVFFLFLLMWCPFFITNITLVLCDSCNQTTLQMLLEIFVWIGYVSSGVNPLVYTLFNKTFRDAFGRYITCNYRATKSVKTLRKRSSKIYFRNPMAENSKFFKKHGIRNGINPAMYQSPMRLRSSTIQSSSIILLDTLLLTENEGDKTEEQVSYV

Row | Compound | Ki [1] [nM] | Ki [2] | Ki [3] [nM] | Ki [4] [nM]
1 | Cc1nc2sccn2c(=O)c1CCN1CCC(=C(c2ccc(F)cc2)c2ccc(F)cc2)CC1 | 5.01 | 0.25 nM | – | –
2 | CC[C@@H](CO)NC(=O)[C@@H]1C=C2c3cccc4c3c(cn4C)C[C@H]2N(C)C1 | – | 1.58 nM | 1.99 | –
3 | O=C(c1ccc(F)cc1)C1CCN(CCn2c(=O)[nH]c3ccccc3c2=O)CC1 [3-(2-{4-[(4-fluorophenyl)carbonyl]piperidin-1-yl}ethyl)-1,2,3,4-tetrahydroquinazoline-2,4-dione] | – | – | 63.1 | 3980
4 | O=C(CCCN1CCC2(CC1)C(=O)NCN2c1ccccc1)c1ccc(F)cc1 [8-[4-(4-fluorophenyl)-4-oxidanylidene-butyl]-1-phenyl-1,3,8-triazaspiro[4.5]decan-4-one] | 1580 | 501 nM and 1000 nM | – | –
5 | Cn1ccc2cc(NC(=O)Nc3cccnc3)ccc21 [SB 200646] | 631 | 501 nM | 1000 | –
6 | Clc1cccc(N2CCNCC2)c1 [mCPP] | – | – | 126 | 25.1
7 | COC(=O)[C@@H]1[C@H]2C[C@H]3c4[nH]c5ccccc5c4CCN3C[C@@H]2CC[C@@H]1O [yohimbic acid methyl ester] | – | – | > 10000 | 50.1
